From ChEMBL document CHEMBL3351920, “Biased and unbiased strategies to identify biologically active small molecules” (Bioorg Med Chem, 2014)

Legend:
[1] = Inhibition of CUG-RNA/MBLN1 (unknown origin) interaction
[2] = Binding affinity to G-quadruplex RNA (unknown origin)
[3] = Binding affinity to H-telo G-quadruplex DNA (unknown origin)
[4] = Binding affinity to double strand DNA (unknown origin)
Acetylcholinesterase = Acetylcholinesterase (Homo sapiens, UniProt P22303); assay: Inhibition of acetylcholine esterase (unknown origin)
Acetylcholinesterase, sequence (P22303 whole entry): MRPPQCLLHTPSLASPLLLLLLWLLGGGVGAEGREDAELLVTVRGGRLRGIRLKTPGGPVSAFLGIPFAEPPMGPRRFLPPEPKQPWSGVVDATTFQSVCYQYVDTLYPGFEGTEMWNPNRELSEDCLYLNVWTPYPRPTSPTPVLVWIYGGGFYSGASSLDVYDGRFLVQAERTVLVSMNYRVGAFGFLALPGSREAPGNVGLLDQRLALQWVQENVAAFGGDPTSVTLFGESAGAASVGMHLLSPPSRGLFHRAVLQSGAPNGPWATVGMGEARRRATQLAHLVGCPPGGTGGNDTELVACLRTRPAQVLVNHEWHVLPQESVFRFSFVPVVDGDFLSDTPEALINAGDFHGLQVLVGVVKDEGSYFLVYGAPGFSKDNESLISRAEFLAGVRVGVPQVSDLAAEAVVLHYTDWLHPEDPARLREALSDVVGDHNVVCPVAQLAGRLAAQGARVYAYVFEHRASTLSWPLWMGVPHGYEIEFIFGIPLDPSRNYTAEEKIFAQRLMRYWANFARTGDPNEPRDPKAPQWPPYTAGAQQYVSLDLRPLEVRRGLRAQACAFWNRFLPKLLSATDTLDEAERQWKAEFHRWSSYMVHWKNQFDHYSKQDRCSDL

[5] = molecular target: RAC-alpha serine/threonine-protein kinase (Homo sapiens, UniProt P31749); assay: Inhibition of Akt1 (unknown origin)
RAC-alpha serine/threonine-protein kinase, sequence (P31749 whole entry): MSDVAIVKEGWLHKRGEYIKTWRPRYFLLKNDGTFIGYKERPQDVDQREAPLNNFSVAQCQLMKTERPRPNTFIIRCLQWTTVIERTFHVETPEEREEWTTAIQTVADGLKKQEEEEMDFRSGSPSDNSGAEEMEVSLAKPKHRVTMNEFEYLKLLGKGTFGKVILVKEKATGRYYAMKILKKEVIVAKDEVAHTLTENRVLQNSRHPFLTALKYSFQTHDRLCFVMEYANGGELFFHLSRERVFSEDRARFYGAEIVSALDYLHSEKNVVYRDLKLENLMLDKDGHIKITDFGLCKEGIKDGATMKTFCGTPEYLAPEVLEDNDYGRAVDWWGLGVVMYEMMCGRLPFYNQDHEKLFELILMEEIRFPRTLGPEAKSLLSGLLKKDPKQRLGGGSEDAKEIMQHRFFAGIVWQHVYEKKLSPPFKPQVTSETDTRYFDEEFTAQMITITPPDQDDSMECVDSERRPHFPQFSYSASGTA

[6] = molecular target: T1, Glutathione S-transferase Mu 1 (Mus musculus, UniProt P10649); assay: Inhibition of mouse GSTM1-1
T1 sequence (P10649 whole entry): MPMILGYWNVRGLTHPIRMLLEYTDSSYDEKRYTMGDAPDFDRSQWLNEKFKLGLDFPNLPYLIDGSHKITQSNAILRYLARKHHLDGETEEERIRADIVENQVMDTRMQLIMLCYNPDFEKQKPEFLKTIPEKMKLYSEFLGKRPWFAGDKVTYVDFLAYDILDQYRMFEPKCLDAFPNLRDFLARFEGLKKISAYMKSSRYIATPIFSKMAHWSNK

[7] = molecular target: Cyclin-dependent kinase 1 (Homo sapiens, UniProt P06493); assay: Inhibition of CDK1 (unknown origin)
Cyclin-dependent kinase 1, sequence (P06493 whole entry): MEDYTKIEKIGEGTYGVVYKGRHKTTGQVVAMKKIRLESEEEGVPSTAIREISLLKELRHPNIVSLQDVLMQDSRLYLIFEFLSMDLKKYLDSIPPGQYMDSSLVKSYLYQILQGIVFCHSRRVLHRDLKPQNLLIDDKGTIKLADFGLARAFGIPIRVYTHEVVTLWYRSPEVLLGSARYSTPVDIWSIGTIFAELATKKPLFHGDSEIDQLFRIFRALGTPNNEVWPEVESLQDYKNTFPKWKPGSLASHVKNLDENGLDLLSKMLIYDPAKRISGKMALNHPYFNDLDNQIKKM

Beta-casein = molecular target: T2, Beta-casein (Bos taurus, UniProt P02666); assay: Binding affinity to bovine beta-casein A1
T2 sequence (P02666 whole entry): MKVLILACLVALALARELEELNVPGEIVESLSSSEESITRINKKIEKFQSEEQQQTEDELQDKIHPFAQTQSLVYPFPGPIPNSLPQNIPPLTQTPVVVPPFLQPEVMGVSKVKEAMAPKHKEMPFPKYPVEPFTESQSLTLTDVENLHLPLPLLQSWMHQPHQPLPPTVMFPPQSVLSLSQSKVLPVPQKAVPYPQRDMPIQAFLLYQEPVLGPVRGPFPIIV

Bcl-2-like protein 10 = molecular target: T3, Bcl-2-like protein 10 (Homo sapiens, UniProt Q9HD36); assay: Binding affinity to Bcl-b (unknown origin)
T3 sequence (Q9HD36 whole entry): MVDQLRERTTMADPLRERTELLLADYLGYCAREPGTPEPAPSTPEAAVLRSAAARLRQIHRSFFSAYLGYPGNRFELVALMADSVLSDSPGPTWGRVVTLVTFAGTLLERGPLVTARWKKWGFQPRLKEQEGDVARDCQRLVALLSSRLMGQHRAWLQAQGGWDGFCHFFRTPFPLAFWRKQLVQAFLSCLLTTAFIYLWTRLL

CCc1nc2ccccc2cc1C(=O)N1CCC[C@H]1C(=O)N[C@H](CSSC[C@@H](NC(=O)[C@@H]1CCCN1C(=O)c1cc2ccccc2nc1CC)C(=O)N[C@@H](CCCCN)C(=O)NCCCN)C(=O)N[C@@H](CCCCN)C(=O)NCCCN
Ki [1]: 3.6 µM

NCCOc1cc(NC(=O)c2cc(OCc3cn(CCC(=O)O)nn3)cc(C(=O)Nc3cc(OCCN)c4ccccc4n3)n2)nc2ccccc12
deltaTm [2]: 20.7 K

NCCOc1cc(NC(=O)c2cc(OCc3cn([C@H]4O[C@H](CO)[C@@H](O)[C@H](O)[C@H]4O)nn3)cc(C(=O)Nc3cc(OCCN)c4ccccc4n3)n2)nc2ccccc12
deltaTm [3]: 30 K
deltaTm [4]: 0 K

C[N+](C)(C)CCCCCCCCCC[N+](C)(C)C [DECAMETHONIUM BROMIDE]
IC50 (Acetylcholinesterase): 1000 nM

CC[C@H](C)[C@H](NC(=O)[C@H](CCCNC(=N)N)NC(=O)[C@H](CCC(=O)O)NC(=O)[C@H](Cc1cnc[nH]1)NC(=O)[C@H](CCCNC(=N)N)NC(=O)C(CCCCCCCCn1cc(CCCC(=O)NC(CCCCCCCCn2cc(C[C@H](NC(C)=O)C(=O)N[C@@H](Cc3ccccc3)C(=O)N[C@@H](Cc3c[nH]c4ccccc34)C(=O)N[C@@H](Cc3ccccc3)C(=O)N[C@@H](CC(C)C)C(=O)N[C@@H](CCCNC(=N)N)C(=O)NCC(N)=O)nn2)C(=O)N[C@H](C(=O)N[C@@H](Cc2ccccc2)C(=O)N[C@@H](Cc2ccc(O)cc2)C(=O)N[C@@H](CCCNC(=N)N)C(=O)N[C@@H](CC(C)C)C(=O)NCC(=O)N[C@@H](Cc2ccc(O)cc2)C(=O)NCCNC(=O)CCCC[C@H]2SC[C@H]3NC(=O)N[C@H]32)C(C)C)nn1)NC(C)=O)C(N)=O (stereo partly drawn)
Kd [5]: 200 nM

O=C(Nc1cc(OCCN2CCCC2)c2ccccc2n1)c1cc(OCc2cn([C@H]3O[C@H](CO)[C@@H](O)[C@H](O)[C@H]3O)nn2)cc(C(=O)Nc2cc(OCCN3CCCC3)c3ccccc3n2)n1
deltaTm [3]: 28 K
deltaTm [4]: 0.1 K

O=C(C[n+]1ccccc1)N/N=C/c1ccc(/C=N/NC(=O)C[n+]2ccccc2)cc1
IC50 (Acetylcholinesterase): 2.3 nM

C[C@H](NC(=O)c1cccc(C(=O)N[C@@H](C)C(=O)N/N=C/c2ccc(SC[C@H](NC(=O)CC[C@H](N)C(=O)O)C(=O)NCC(=O)O)c([N+](=O)[O-])c2)c1)C(=O)N/N=C/c1ccc(SC[C@H](NC(=O)CC[C@H](N)C(=O)O)C(=O)NCC(=O)O)c([N+](=O)[O-])c1
IC50 [6]: 50 nM

c1ccc2[nH]c(-c3cc[nH]n3)nc2c1
IC50 [7]: 28 µM

CN(C)CC[C@H](CSc1ccccc1)Nc1ccc(S(=O)(=O)NC(=O)c2ccc(N3CCN(Cc4ccccc4-c4ccc(Cl)cc4)CC3)cc2)cc1[N+](=O)[O-] [ABT 737]
Ki (Beta-casein): > 1 nM
Ki (Bcl-2-like protein 10): > 1 nM
